How the values were obtained:
[1] = system: HER3, DR5, CHOP and XBP1s; test: Reducing immunoblot of DDA responses; format: cell-based; conditions: MDA-MB-468 cells
Description: The BT20, BT474, BT549, MCF7, MDA-MB-231, MDA-MB-436, MDA-MB-468, HCC1143, HCC1500, HCC1569, HCC1937, HCC1954, Hs578t, and T47D cells lines were purchased from American Type Culture Collection (ATCC) (Manassas, VA). The HCI-001 cell line was derived from an ER-/PR-/HER2- patient-derived xenograft originally isolated from a patient as described previously (DeRose Y S, et al. Nat Med 2011; 17: 1514-1520). The HCI-001/LVM2 model was derived from the HCI-001 cell line by performing two rounds of selection for liver metastasis, as described previously (Wang M, et al. Cell Death Discovery 2019; 5: 153). Cell lines were grown in Dulbecco's Modified Eagle's Medium (GE Healthcare Life Sciences, Logan, UT) containing 10% fetal bovine serum (10% FBS—DMEM) in a humidified incubator with 5% CO2 at 37° C. Cell lysates were prepared as described previously (Law B K, et al. Mol Cell Biol. 2002; 22: 8184-8198). […]

ERAP1 = ERAP1 secretion in A431 skin cancer cells, immunoblot; format: cell-based; conditions: 5 μM, 24 h
MDA-MB-468 cells [2] = test: Cell viability (MTT) assay; format: cell-based; conditions: FIG. 1D
Description: MTT (3-(4,5-dimethylthiazol-2-yl)-2,5-diphenyltetrazolium bromide) (Biomatik, Wilmington, DE) assays were performed by plating 7,500 cells/well in 10% FBS/DMEM in a 96-well plate, followed by incubation at 37° C. for 24 h. Cells were then treated with vehicle or increasing concentrations of tcyDTDO, dMtcyDTDO, or dFtcyDTDO and incubated at 37° C. for 72 h. Cell media was subsequently removed from each well and MTT assays were initiated by incubating cells with 0.5 mg/ml MTT in PBS for 3 h, followed by removal of the MTT solution and addition of 100 µL of DMSO to each well for 30 min. Absorbance of the MTT formazan product was subsequently measured at 570 and 690 (reference) nm in a plate reader.

GRP78 = test: Endoplasmic reticulum stress (ERS) induction, immunoblot; format: cell-based; conditions: MDA-MB-468 cells, 24 h
Description: The BT20, BT474, BT549, MCF7, MDA-MB-231, MDA-MB-436, MDA-MB-468, HCC1143, HCC1500, HCC1569, HCC1937, HCC1954, Hs578t, and T47D cells lines were purchased from American Type Culture Collection (ATCC) (Manassas, VA). The HCI-001 cell line was derived from an ER-/PR-/HER2- patient-derived xenograft originally isolated from a patient as described previously (DeRose Y S, et al. Nat Med 2011; 17: 1514-1520). The HCI-001/LVM2 model was derived from the HCI-001 cell line by performing two rounds of selection for liver metastasis, as described previously (Wang M, et al. Cell Death Discovery 2019; 5: 153). Cell lines were grown in Dulbecco's Modified Eagle's Medium (GE Healthcare Life Sciences, Logan, UT) containing 10% fetal bovine serum (10% FBS—DMEM) in a humidified incubator with 5% CO2 at 37° C. Cell lysates were prepared as described previously (Law B K, et al. Mol Cell Biol. 2002; 22: 8184-8198). Immunoblot analysis was performed utilizing the following antibodies purchased from Cell Signaling Technology (Beverly, MA) [Akt, #4691; P-Akt[T308], #13038; ATF4, #11815; CHOP, #2895; Cleaved Caspase 8, #9496; DR4, #42533; DR5, #8074; EGFR, #4267; GRP78, #3177; HER3, #4754; PARP, #9532; PDIA1, #3501; XBP1s, #12782], from Santa Cruz Biotechnology (Santa Cruz, CA) [Actin, sc-47778; AGR2/3, sc-376653; AGR3, sc-390940; ERO1-a, sc-100805; and ERp44, sc-393687], or from Rockland Immunochemicals, Inc. (Limerick, PA), Streptavidin-Alkaline Phosphatase conjugated (SA-AP), S000-05.
(§1) To assess protein disulfide bond-mediated oligomerization, cells were treated with DDAs for 24 h in 10% FBS-DMEM. Cells were subsequently scraped directly into the media and pelleted by centrifugation. Cells were extracted directly into boiling 2×-SDS-Sample Buffer containing 100 mM NEM and boiled for 10 min. Samples were sonicated, followed by centrifugation for 20 min at room temperature. Samples were subsequently analyzed by SDS-PAGE and immunoblot.

AGR3 = biological target: T1, AGR3 (Homo sapiens, UniProt Q8TD06); test: DDA binding assay with AGR3; conditions: molar excess, pre-incubation with 600 μM, FIG. 2D
T1 construct: His6 (N); purchased ProSpec PRO-242
Description: (§2) Purified His6-AGR2 or His6-AGR2 C81S, as prepared above, or His6-AGR2 (PRO-580) or His6-AGR3 (PRO-242) obtained from ProSpec (New Brunswick NJ) were incubated with or without varying concentrations of the unlabeled DDA competitors, tcyDTDO or dMtcyDTDO, and 30 μM Biotin-GlyPyrDTDO or Biotin-PyrDTDO in buffer (20 mM HEPES (pH 7.4), 1 mM EDTA, 1 mM EGTA, 5% Glycerol, 1 nM Microcystin, 1 mM Na3VO4, and 40 mM Na2H2P2O7) containing 1% Triton-X 100 for 30 min at 37° C. […] Therefore, the two probes were used interchangeably. Reactions were stopped by boiling the samples in 2×-SDS-Sample Buffer containing 100 mM NEM for 10 min. Biotin-DDA labeling of protein was verified by blotting with Streptavidin-Alkaline Phosphatase (Rockland Immunochemicals, Inc., Limerick, PA). ERp44 (PRO-547) and PDIA1 (ENZ-262) were obtained from ProSpec and used in experiments examining the binding of these proteins to Biotin-PyrDTDO.

MDA-MB-468 cells [3] = test: Thymidine incorporation (DNA synthesis) assay; format: cell-based; conditions: 24 h, FIG. 9A
Description: Thymidine incorporation assays were performed as described previously (Corsino P, et al. J Biol Chem 2009; 284: 29945-29955).

ERp44 [4] = biological target: T2, ERp44 (Homo sapiens, UniProt Q9BS26); test: ERp44 disulfide bonding with client proteins, non-reducing immunoblot; format: cell-based; parameters: endogenous in cells; host or cells: MDA-MB-468; conditions: MDA-MB-468 cells
T2 sequence (Q9BS26 30-406): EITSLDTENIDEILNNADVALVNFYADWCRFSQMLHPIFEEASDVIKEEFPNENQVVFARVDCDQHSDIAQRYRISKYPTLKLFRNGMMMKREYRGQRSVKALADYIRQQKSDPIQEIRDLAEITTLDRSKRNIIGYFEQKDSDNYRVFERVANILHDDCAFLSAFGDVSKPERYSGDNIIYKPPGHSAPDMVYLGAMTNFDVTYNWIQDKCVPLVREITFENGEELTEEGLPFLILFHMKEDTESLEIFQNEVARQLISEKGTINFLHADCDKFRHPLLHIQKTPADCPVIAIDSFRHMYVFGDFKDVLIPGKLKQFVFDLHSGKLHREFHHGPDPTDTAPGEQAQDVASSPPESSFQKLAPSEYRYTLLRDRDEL
Description: as §1

ERp44 [5] = biological target: T2, ERp44; test: In vitro binding assay with recombinant purified ERp44; conditions: pre-incubation with a molar excess, FIG. 3D
Description: as §2

T1 sequence (Q8TD06 22-166): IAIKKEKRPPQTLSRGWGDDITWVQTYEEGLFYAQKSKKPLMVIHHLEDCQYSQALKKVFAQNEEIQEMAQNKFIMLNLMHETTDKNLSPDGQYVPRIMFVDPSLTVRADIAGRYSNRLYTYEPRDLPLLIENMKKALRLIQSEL

CO[C@H]1C[C@@H]2CS(=O)(=O)SC[C@H]2C[C@@H]1OC [dMtcyDTDO, dimethoxy-tcyDTDO]
Potency in induction of HER3 downregulation, DR5 upregulation and ERS (CHOP, XBP1s) ([1]; 24 h, reducing conditions, FIG. 9B): more potent than tcyDTDO
Onset of these responses (time-course) ([1]; FIG. 9C): as early as four hours after treatment
ERAP1 levels in the culture medium (ERAP1; FIG. 4F upper): dramatically increased
ERAP1 secretion, statistical analysis (ERAP1; N=3, FIG. 4F lower): induced ERAP1 secretion in a statistically significant manner
Potency in cell viability assays relative to tcyDTDO (MDA-MB-468 cells [2]): approximately two-fold greater potency than tcyDTDO
Concentration at which induction of ERS (GRP78 elevation) was detected (GRP78; FIG. 1E right): 625 nM
ERS at the same concentration (GRP78; compared with tcyDTDO, FIG. 1E left): greater ERS
Competition with Biotin-GlyPyrDTDO binding to AGR3 (AGR3): partially prevented Biotin-GlyPyrDTDO binding
Potency in DNA synthesis assay relative to tcyDTDO (MDA-MB-468 cells [3]): two-fold greater potency than tcyDTDO
Disulfide bonding of ERp44 with client proteins (ERp44 [4]; 5 μM, 24 h, FIG. 3E): reduces disulfide bonding of ERp44 and PDIA1 with multiple proteins
Monomeric levels of ERp44 (ERp44 [4]; 5 μM, 24 h, FIG. 3E): minimal effect on monomeric levels
ERp44 binding to client proteins, quantitation across four experiments (ERp44 [4]; FIG. 4D): decreased ERAP1 levels and ERp44 binding to client proteins in a statistically significant manner
Block of Biotin-PyrDTDO biotinylation of ERp44 (ERp44 [5]): biotinylation was blocked
